Assay results reported in US9149038B2, “4-amino-6-(heterocyclic)picolinates and 6-amino-2-(heterocyclic)pyrimidine-4-carboxylates and their use as herbicides” (Dow AgroSciences LLC, priority 2013, dated 2015).
Read-outs that look alike come from different tables or passages of the source.

Columns and labels:
[1] = test system: Key Broadleaf Weed and Crop Species; assay: Post-Emergent Test II: postemergent herbicidal activity, visual rating after 14 d (Table 7); type: in vivo; details: post-emergence, 336 h; for pest or weed control at 35 g/ha: 35 g ai/ha; for pest or weed control at 70 g/ha: 70 g ai/ha; for pest or weed control at 140 g/ha: 140 g ai/ha
Description: (§1) Herbicidal evaluations were made visually on a scale of 0 to 100 where 0 represents no activity and 100 represents complete plant death.
(§2) Seeds or nutlets of the desired test plant species were planted in Sun Gro Metro-Mix® 360 planting mixture, which typically has a pH of 6.0 to 6.8 and an organic matter content of about 30 percent, in plastic pots with a surface area of 64 square centimeters (cm^2). When required to ensure good germination and healthy plants, a fungicide treatment and/or other chemical or physical treatment was applied. The plants were grown for 7-21 d in a greenhouse with an approximate 15 h photoperiod which was maintained at about 23-29° C. during the day and 22-28° C. during the night. Nutrients and water were added on a regular basis and supplemental lighting was provided with overhead metal halide 1000-Watt lamps as necessary. The plants were employed for testing when they reached the first or second true leaf stage.
(§3) A weighed amount, determined by the highest rate to be tested, of each test compound was placed in a 25 mL glass vial and was dissolved in 4 mL of a 97:3 v/v mixture of acetone and DMSO to obtain concentrated stock solutions. […] The concentrated stock solutions obtained were diluted with 20 mL of an aqueous mixture containing acetone, water, isopropyl alcohol, DMSO, Atplus 411F crop oil concentrate, and Triton® X-155 surfactant in a 48.5:39:10:1.5:1.0:0.02 v/v ratio to obtain spray solutions containing the highest application rates. Additional application rates were obtained by serial dilution of 12 mL of the high rate solution into a solution containing 2 mL of a 97:3 v/v mixture of acetone and DMSO and 10 mL of an aqueous mixture containing acetone, water, isopropyl alcohol, DMSO, Atplus 411F crop oil concentrate, and Triton X-155 surfactant in a 48.5:39:10:1.5:1.0:0.02 v/v ratio to obtain ½×, ¼×, ⅛× and 1/16× rates of the high rate. Compound requirements are based upon a 12 mL application volume at a rate of 187 liters per hectare (L/ha). Formulated compounds were applied to the plant material with an overhead Mandel track sprayer equipped with 8002E nozzles calibrated to deliver 187 L/ha over an application area of 0.503 square meters at a spray height of 18 inches (43 cm) above the average plant canopy height. Control plants were sprayed in the same manner with the solvent blank.
(§4) The treated plants and control plants were placed in a greenhouse as described above and watered by subirrigation to prevent wash-off of the test compounds. After 14 d, the condition of the test plants as compared with that of the untreated plants was determined visually and scored on a scale of 0 to 100 percent where 0 corresponds to no injury and 100 corresponds to complete kill and are presented as indicated in Table 4.

[2] = test system: Key Grass and Sedge Weeds as well as Grass Crops; assay: Post-Emergent Test II: postemergent herbicidal activity, visual rating after 14 d (Table 8); type: in vivo; details: post-emergence, 336 h; for pest or weed control at 35 g/ha: 35 g ai/ha; for pest or weed control at 70 g/ha: 70 g ai/ha; for pest or weed control at 140 g/ha: 140 g ai/ha
Description: as §1, §2, §3, §4

[3] = lambsquarters (Chenopodium album), read-out: Visual Growth Reduction (%) 14 Days After Application CHEAL
[4] = oilseed rape, canola (Brassica napus), read-out: Visual Growth Reduction (%) 14 Days After Application BRSNN
[5] = redroot pigweed (Amaranthus retroflexus), read-out: Visual Growth Reduction (%) 14 Days After Application AMARE
[6] = sunflower (Helianthus annuus), read-out: Visual Growth Reduction (%) 14 Days After Application HELAN
[7] = velvetleaf (Abutilon theophrasti), read-out: Visual Growth Reduction (%) 14 Days After Application ABUTH
[8] = wild poinsettia (Euphorbia heterophylla), read-out: Visual Growth Reduction (%) 14 Days After Application EPHHL
[9] = barnyardgrass (Echinochloa crus-galli), read-out: Visual Growth Reduction (%) 14 Days After Application ECHCG
[10] = giant foxtail (Setaria faberi), read-out: Visual Growth Reduction (%) 14 Days After Application SETFA
[11] = rice (Oryza sativa), read-out: Visual Growth Reduction (%) 14 Days After Application ORYSA
[12] = wheat, spring (Triticum aestivum), read-out: Visual Growth Reduction (%) 14 Days After Application TRZAS
[13] = yellow nutsedge (Cyperus esculentus), read-out: Visual Growth Reduction (%) 14 Days After Application CYPES
[14] = ABUTH: velvetleaf (Abutilon theophrasti), read-out: Visual Growth Reduction (%) 14 Days After Application ABUTH
[15] = AMARE: redroot pigweed (Amaranthus retroflexus), read-out: Visual Growth Reduction (%) 14 Days After Application AMARE
[16] = BRSNN: oilseed rape, canola (Brassica napus), read-out: Visual Growth Reduction (%) 14 Days After Application BRSNN
[17] = CHEAL: lambsquarters (Chenopodium album), read-out: Visual Growth Reduction (%) 14 Days After Application CHEAL
[18] = EPHHL: wild poinsettia (Euphorbia heterophylla), read-out: Visual Growth Reduction (%) 14 Days After Application EPHHL
[19] = HELAN: sunflower (Helianthus annuus), read-out: Visual Growth Reduction (%) 14 Days After Application HELAN
[20] = barnyardgrass (Echinochloa crus-galli), read-out: Visual Growth Reduction (%) 14 Days After Application, ECHCG
[21] = giant foxtail (Setaria faberi), read-out: Visual Growth Reduction (%) 14 Days After Application, SETFA
[22] = maize, corn (Zea mays), read-out: Visual Growth Reduction (%) 14 Days After Application, ZEAMX
[23] = rice (Oryza sativa), read-out: Visual Growth Reduction (%) 14 Days After Application, ORYSA
[24] = wheat, spring (Triticum aestivum), read-out: Visual Growth Reduction (%) 14 Days After Application, TRZAS
[25] = yellow nutsedge (Cyperus esculentus), read-out: Visual Growth Reduction (%) 14 Days After Application, CYPES

Nc1nc(-c2ccc3c(c2)OC(F)(F)O3)nc(C(=O)O)c1Cl [Compound 61]
pest or weed control at 35 g/ha [1, 3]: 60 to 74% | pest or weed control at 70 g/ha [1, 3]: 60 to 74% | pest or weed control at 140 g/ha [1, 3]: 75 to 84% | pest or weed control at 35 g/ha [1, 4]: 60 to 74% | pest or weed control at 70 g/ha [1, 4]: 85 to 94% | pest or weed control at 140 g/ha [1, 4]: 75 to 84% | pest or weed control at 35 g/ha [1, 5]: 0 to 29% | pest or weed control at 70 g/ha [1, 5]: 30 to 44% | pest or weed control at 140 g/ha [1, 5]: 30 to 44% | pest or weed control at 35 g/ha [1, 6]: 60 to 74% | pest or weed control at 70 g/ha [1, 6]: 60 to 74% | pest or weed control at 140 g/ha [1, 6]: 75 to 84% | pest or weed control at 35 g/ha [1, 7]: 45 to 59% | pest or weed control at 70 g/ha [1, 7]: 60 to 74% | pest or weed control at 140 g/ha [1, 7]: 60 to 74% | pest or weed control at 35 g/ha [1, 8]: 85 to 94% | pest or weed control at 70 g/ha [1, 8]: 95 to 100% | pest or weed control at 140 g/ha [1, 8]: 95 to 100% | pest or weed control at 35 g/ha [2, 9]: 85 to 94% | pest or weed control at 70 g/ha [2, 9]: 85 to 94% | pest or weed control at 140 g/ha [2, 9]: 85 to 94% | pest or weed control at 35 g/ha [2, 10]: 60 to 74% | pest or weed control at 70 g/ha [2, 10]: 75 to 84% | pest or weed control at 140 g/ha [2, 10]: 85 to 94% | pest or weed control at 35 g/ha [2, 11]: 0 to 29% | pest or weed control at 70 g/ha [2, 11]: 45 to 59% | pest or weed control at 140 g/ha [2, 11]: 60 to 74% | pest or weed control at 35 g/ha [2, 12]: 60 to 74% | pest or weed control at 70 g/ha [2, 12]: 75 to 84% | pest or weed control at 140 g/ha [2, 12]: 75 to 84% | pest or weed control at 35 g/ha [2, 13]: 0 to 29% | pest or weed control at 70 g/ha [2, 13]: 0 to 29% | pest or weed control at 140 g/ha [2, 13]: 45 to 59%

COC(=O)c1nc(-c2ccc(Cl)c3c2OC(F)(F)O3)c(Cl)c(N)c1Cl [Compound 70]
pest or weed control at 35 g/ha [1, 3]: 75 to 84% | pest or weed control at 70 g/ha [1, 3]: 85 to 94% | pest or weed control at 140 g/ha [1, 3]: 95 to 100% | pest or weed control at 35 g/ha [1, 4]: 60 to 74% | pest or weed control at 70 g/ha [1, 4]: 60 to 74% | pest or weed control at 140 g/ha [1, 4]: 75 to 84% | pest or weed control at 35 g/ha [1, 5]: 95 to 100% | pest or weed control at 70 g/ha [1, 5]: 95 to 100% | pest or weed control at 140 g/ha [1, 5]: 95 to 100% | pest or weed control at 35 g/ha [1, 6]: 85 to 94% | pest or weed control at 70 g/ha [1, 6]: 95 to 100% | pest or weed control at 140 g/ha [1, 6]: 95 to 100% | pest or weed control at 35 g/ha [1, 7]: 45 to 59% | pest or weed control at 70 g/ha [1, 7]: 75 to 84% | pest or weed control at 140 g/ha [1, 7]: 75 to 84% | pest or weed control at 35 g/ha [1, 8]: 0 to 29% | pest or weed control at 70 g/ha [1, 8]: 0 to 29% | pest or weed control at 140 g/ha [1, 8]: 0 to 29% | pest or weed control at 35 g/ha [2, 9]: 0 to 29% | pest or weed control at 70 g/ha [2, 9]: 0 to 29% | pest or weed control at 140 g/ha [2, 9]: 0 to 29% | pest or weed control at 35 g/ha [2, 10]: 0 to 29% | pest or weed control at 70 g/ha [2, 10]: 0 to 29% | pest or weed control at 140 g/ha [2, 10]: 0 to 29% | pest or weed control at 35 g/ha [2, 11]: 0 to 29% | pest or weed control at 70 g/ha [2, 11]: 0 to 29% | pest or weed control at 140 g/ha [2, 11]: 0 to 29% | pest or weed control at 35 g/ha [2, 12]: 0 to 29% | pest or weed control at 70 g/ha [2, 12]: 0 to 29% | pest or weed control at 140 g/ha [2, 12]: 0 to 29% | pest or weed control at 35 g/ha [2, 13]: 0 to 29% | pest or weed control at 70 g/ha [2, 13]: 0 to 29% | pest or weed control at 140 g/ha [2, 13]: 0 to 29%

COC(=O)c1nc(-c2ccc3c(c2)CCN3C)c(F)c(N)c1Cl [Compound 107]
pest or weed control at 140 g/ha [1, 14]: 60 to 74% | pest or weed control at 140 g/ha [1, 15]: 0 to 29% | pest or weed control at 140 g/ha [1, 16]: 0 to 29% | pest or weed control at 140 g/ha [1, 17]: 85 to 94% | pest or weed control at 140 g/ha [1, 18]: 95 to 100% | pest or weed control at 140 g/ha [1, 19]: 0 to 29% | pest or weed control at 140 g/ha [2, 20]: 0 to 29% | pest or weed control at 140 g/ha [2, 21]: 0 to 29% | pest or weed control at 140 g/ha [2, 22]: 0 to 29% | pest or weed control at 140 g/ha [2, 23]: 0 to 29% | pest or weed control at 140 g/ha [2, 24]: 0 to 29% | pest or weed control at 140 g/ha [2, 25]: 0 to 29%

CN1CCc2cc(-c3nc(C(=O)O)c(Cl)c(N)c3F)ccc21 [Compound 108]
pest or weed control at 140 g/ha [1, 14]: 0 to 29% | pest or weed control at 140 g/ha [1, 15]: 0 to 29% | pest or weed control at 140 g/ha [1, 16]: 0 to 29% | pest or weed control at 140 g/ha [1, 17]: 60 to 74% | pest or weed control at 140 g/ha [1, 18]: 0 to 29% | pest or weed control at 140 g/ha [1, 19]: 60 to 74% | pest or weed control at 140 g/ha [2, 20]: 75 to 84% | pest or weed control at 140 g/ha [2, 21]: 0 to 29% | pest or weed control at 140 g/ha [2, 22]: 0 to 29% | pest or weed control at 140 g/ha [2, 23]: 0 to 29% | pest or weed control at 140 g/ha [2, 24]: 0 to 29% | pest or weed control at 140 g/ha [2, 25]: 0 to 29%
